# According to PubChem BioAssay AID492987 (Johns Hopkins Ion Channel Center, 2010):
# The source made the active and inactive calls.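 Rule for the calls: active = over 30% block of the TRPC6 ion channel at some tested dose, plus a fitted dose-response curve; inactive = no block at any dose, or no fitted curve.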
# Target: Short transient receptor potential channel 6 (Mus musculus) (UniProt Q61143)
# Assay: TRPC6 inhibition potency of TRPC4 inhibitor analogs, dose response, selectivity assay for selective TRPC4 inhibitor project, HEK293 cells, membrane potential dye, IC50 (AID 492987)
# Details: at 20 µM (top of the series)
# Short transient receptor potential channel 6 (Mus musculus), sequence (Q61143 whole entry, looked up): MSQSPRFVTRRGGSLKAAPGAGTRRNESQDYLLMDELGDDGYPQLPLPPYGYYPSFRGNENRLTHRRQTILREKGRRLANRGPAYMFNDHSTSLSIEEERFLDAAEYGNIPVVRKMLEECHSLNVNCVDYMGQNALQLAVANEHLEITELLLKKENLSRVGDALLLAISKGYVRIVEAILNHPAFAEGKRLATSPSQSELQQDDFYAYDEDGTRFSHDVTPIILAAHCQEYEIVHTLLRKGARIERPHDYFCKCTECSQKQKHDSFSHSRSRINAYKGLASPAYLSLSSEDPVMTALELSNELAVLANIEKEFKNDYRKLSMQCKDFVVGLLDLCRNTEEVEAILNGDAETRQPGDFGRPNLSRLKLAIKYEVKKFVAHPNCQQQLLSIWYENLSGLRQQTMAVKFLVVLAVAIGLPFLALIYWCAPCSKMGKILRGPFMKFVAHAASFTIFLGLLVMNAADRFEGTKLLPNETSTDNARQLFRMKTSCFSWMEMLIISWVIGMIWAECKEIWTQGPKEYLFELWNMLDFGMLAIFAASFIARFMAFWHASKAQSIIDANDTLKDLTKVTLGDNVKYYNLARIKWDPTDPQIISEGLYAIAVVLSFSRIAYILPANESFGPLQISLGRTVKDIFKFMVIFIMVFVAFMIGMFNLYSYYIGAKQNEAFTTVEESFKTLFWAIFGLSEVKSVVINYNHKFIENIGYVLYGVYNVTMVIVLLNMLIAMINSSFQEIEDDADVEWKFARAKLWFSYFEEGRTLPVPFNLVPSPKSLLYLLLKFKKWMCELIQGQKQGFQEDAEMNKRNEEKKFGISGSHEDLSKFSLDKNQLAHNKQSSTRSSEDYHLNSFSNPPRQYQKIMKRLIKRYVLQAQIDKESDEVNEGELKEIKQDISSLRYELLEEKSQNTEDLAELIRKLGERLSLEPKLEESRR
row,"fluorescence ratio, lower = inhibition",Structure (SMILES)
1,inactive,Cc1cc(N2CCN(c3ncccn3)CC2)nc2ccccc12
2,inactive,Cc1cc(N2CCOCC2)nc2ccccc12
3,inactive,Cc1cc(N2CCCC(O)C2)nc2ccccc12 (stereo not given)
4,inactive,Cc1cc(N2CCC(C)CC2)nc2ccccc12
5,inactive,COc1ccc(N2CCN(c3cc(C)c4ccccc4n3)CC2)cc1
6,inactive,Cc1cc(N2CC(C)CC(C)C2)nc2ccccc12 (stereo not given)
7,inactive,CCN(CC)c1cc(C)c2ccccc2n1
8,inactive,Cc1cc(N2CCN(CC3CCCO3)CC2)nc2ccccc12 (stereo not given)
9,inactive,Cc1cc(N2CCOc3ccccc32)nc2ccccc12
10,inactive,COc1ccccc1N1CCN(c2cc(C)c3ccccc3n2)CC1

# The next lines start with the compound.
row,Structure (SMILES),"fluorescence ratio, lower = inhibition"
1,c1ccc(-c2cc(N3CCCCCC3)nc3ccccc23)cc1,inactive
2,c1ccc(-c2cc(N3CCCC3)nc3ccccc23)cc1,inactive
3,FC(F)(F)c1cc(N2CCCCC2)nc2ccccc12,inactive
4,Cc1cc(N(C)CCN(C)C)nc2ccccc12,inactive
5,Cc1ccnc(N2CCCCC2)c1,inactive
6,Cc1ccnc(N2CCCCC2)n1,inactive
7,COCCN(C)c1cc(C)c2ccccc2n1,inactive
8,Cc1ccnc(N2CCCCCC2)c1,inactive
9,Cc1cc(N2CCCCC2)nc2c(C)cccc12,inactive
10,Cc1cc(N2CCN(c3ccccc3C#N)CC2)nc2ccccc12,inactive
11,Cc1ccnc(N2CCCC2)n1,inactive
12,Cc1ccnc(N2CCCCCC2)n1,inactive
13,Cc1ccnc(N2CCCC2)c1,inactive
14,Cc1cc(N2CCCCCC2)nc2ccc(F)cc12,inactive
15,CCc1ccc2nc(N3CCCCCC3)cc(C)c2c1,inactive
16,Cc1cc(N2CCCCCC2)nc2c(C)cccc12,inactive
17,FC(F)(F)c1cc(N2CCCCCC2)nc2ccccc12,inactive
18,Cc1cc(N2CCN(C)CC2)nc2ccccc12,inactive
19,c1ccc(-c2cc(N3CCCCC3)nc3ccccc23)cc1,inactive

# Same assay, conditions: membrane potential dye fluorescence
row,IC50 [µM],Structure (SMILES)
1,17.9,Cc1cc(N2CCCCC2)nc2ccccc12
